Key:
blood glucose [1] = assay: Blood glucose following intratracheal administration of 2K PEG insulin in rats (Example 12, P-2002-010); assay type: in vivo, male rats; settings: i.t.
Text: Fourteen (N=7/Group) fasted male rats (Hilltop Lab Animals, Scottsdale, Pa. (300-350 g)) with indwelling jugular vein catheters (JVC) were used for this study. […] Animal 2-3 was dropped from the study due to a clogged catheter.

[2] = Intratracheal administration of 750-2 PEG insulin in rats (Example 11, P-2002-003)
Procedure: (§1) The rats were lightly anesthetized using inhaled 3.0-5.0% Isoflurane (Abbott Laboratories) mixed with oxygen for approximately 5 minutes in a plexiglass anesthesia chamber. Administration was accomplished by insertion of a gavage needle (Popper & Sons Inc.; 18×3″ W2-¼ mm ball, New Hyde Park, N.Y. 11040) fitted into a 1 mL syringe into the mouth of the rat down the trachea to just above the main carina. When inserting the gavage needle into the trachea, proper insertion was detected by feeling for the roughness of the cartilage rings under the skin of the throat using the ball of the gavage needle. Doses were administered into the lungs utilizing this method, and followed by removal of the gavage needle.
(§2) Fourteen (N=7/Group) fasted male rats (Hilltop Lab Animals, Scottsdale, Pa. (300-350 g)) with indwelling jugular vein catheters (JVC) were used for this study.
(§3) The in-vivo rat study was conducted essentially as described in Example 8 above.
Absolute bioavailability was calculated as follows: [formula]

blood glucose [3] = assay: Blood glucose following intratracheal administration of 750-1 PEG insulin in rats (Example 10, P-2002-001); assay type: in vivo, male rats; settings: i.t.
Procedure: as §1, §2
The in-vivo intratracheal rat study was conducted essentially as described in Example 8 above.

blood glucose [4] = assay: Blood glucose following intratracheal administration of 750-1 PEG insulin in rats (Example 9, P-2001-025); assay type: in vivo, male rats; settings: i.t.
Procedure: as §1, §2, §3

blood glucose [5] = settings: rats, 20, 30, 40 μg/animal
blood glucose [6] = settings: i.t.
Procedure: as §1, §2

2K PEG insulin: insulin pegylated in non-site specific (random) fashion with linear mPEG-succinimidyl propionate ~2,000 Daltons; mixture of mono and di-pegylated product
glucose levels at time points past about 6 hours compared with non-pegylated insulin (blood glucose [1]; 600 μg, 900 μg and 1200 μg per animal): suppressed significantly below those of non-pegylated insulin | dose response of decrease in blood glucose concentration (blood glucose [1]; 300-1200 μg/animal): Good dose response | time point at which maximum glucose suppression was achieved (blood glucose [1]; Example 12): about 3 hours

750-2 PEG insulin: 750 PEG insulin composition prepared at molar ratio of PEG reagent (mPEG-SPA-750) to insulin of 3:1
TMax ([2]; rat, in vivo): 1.22 h

750-1 PEG insulin: 750 PEG insulin composition prepared at molar ratio of PEG reagent (mPEG-SPA-750) to insulin of 7:1
duration of glucose suppression (blood glucose [3]; Example 10, 80 and 160 μg/animal): > 25 h | glucose levels at 8 hours, times lower than for unmodified insulin (blood glucose [3]; Example 10, 8 hours): about 1.5 times | glucose suppression over the 12 hour period compared with unmodified insulin (blood glucose [4]; Example 9): significantly increased | onset of action (suppression of glucose) (blood glucose [4]; Example 9): rapid onset of action comparable to native insulin | time at which glucose levels had not yet returned (duration of glucose suppression) (blood glucose [4]; Example 9): > 12 h | time to reach maximum glucose lowering (blood glucose [4]; Example 9, 100 μg dose): ≥ 6 h | time to reach maximum glucose lowering (blood glucose [4]; Example 9, 300 μg dose): ≥ 8 h | time to reach maximum glucose lowering (blood glucose [4]; Example 9, 500 μg dose): at least 4 hours | mean serum insulin and mean blood glucose concentrations following intratracheal instillation (FIG. 10, FIG. 11) ([2]; i.t., 80 μg/animal): Results similar to those in Examples 9 and 10

N^αB1-Methoxypoly(ethylene glycol)5K- propionamido-insulin [5K PEG insulin]
bioactivity (ability to lower blood glucose) (blood glucose [5]; i.v.): possesses bioactivity | glucose levels following i.v. administration (blood glucose [5]): dose dependent decrease | lowering of blood glucose compared with non-pegylated insulin (blood glucose [6]; 150 μg/animal vs non-pegylated insulin 40 μg/animal): less effective than non-pegylated insulin | lowering of blood glucose when administered to the lung (blood glucose [6]; 150 μg/animal, male rats): effective in lowering blood glucose

— patent US20030118510A1 (priority 2001, published 2003)
